Publication PMC7229567, “Comparative Pharmacokinetics of Geniposidic Acid, Genipin-1-β-Gentiobioside, Geniposide, Genipin, and Crocetin in Rats after Oral Administration of Crude Gardeniae Fructus and Its Three Processed Products Using LC-MS/MS” (Evidence-based Complementary and Alternative Medicine : eCAM, 2020)
Read-outs that look alike come from different tables or passages of the source.

Experiments:
[1] = Stability of the analytes in rat plasma QC samples under storage conditions; assay type: in vitro ADME; settings: for Freeze-thaw cycles Remain: three freeze-thaw cycles
Protocol: Quality control (QC) samples containing geniposidic acid, geniposide, genipin-1-β-gentiobioside, genipin, and crocetin were prepared at LLOQ (10 ng/mL), low (30 ng/mL), medium (300 ng/mL), and high concentrations (3000 ng/mL), spiking with appropriate standard solutions with blank plasma to establish calibration curve and method validation. The samples were prepared by the same procedures for plasma samples as described below. The stability of 5 components in the plasma was obtained by evaluating QC samples at four concentration levels with three replicates in different conditions. The QC samples were kept at room temperature for 12 h to determine the short-term stability. Freeze-thaws stability was tested after three freeze-thaw (−80°C at room temperature) on three consecutive days. Long-term stability was tested by evaluating QC samples stored at −80°C for one month. The stability of the five components in rat plasma was determined by evaluating QC samples stored at different temperature and timing conditions. All the components were stable in the autosampler for 24 h, after three freeze-thaw cycles and at a month at −80°C.

[2] = Pharmacokinetics in rat plasma after oral administration of CGF, SGF, GCGF and GIGF extracts (LC-MS/MS); settings: for AUC(0–t24) ratio relative to CGF / Cmax / Tmax / T 1/2 / C max / T max: rat plasma; for AUC(0–t24) ratio relative to CGF: oral; for Cmax / half-life / Tmax: male, Sprague-Dawley, rat, plasma, po, 0.75 mL/kg; for Cmax: C max; for Cmax / half-life / Tmax / T 1/2 / C max / T max: n = 6, mean ± SD; for half-life: T 1/2, rat plasma; for Tmax: T max
Excerpt: (§1) The LC-ESI-MS/MS system is composed of an Agilent 1200 series LC system (Agilent Technologies, USA) including a binary pump, a vacuum degasser unit, an autosampler, and an API 3200 triple quadrupole mass Spectrometer with an ESI source (Concord, Ontario, Canada). Data was acquired by Analyst 1.4.2 software (AB MDS Sciex).
(§2) The Agilent Eclipse plus C18 (4.6 × 100 mm, 1.8 μm) column with a guard column was used to separate multiple ingredients. The mobile phases were methanol (A) and water (B) with a gradient elution of 3–36% A at 0–3 min, 36–36% A at 3–15 min, 36–97% A at 15–16 min, and 97–97% A at 16–26 min, then back from 97% to 3% balanced for 10 min. The flow rate was set at 0.3 mL/min and the column temperature was set at 30°C. The injection volume was 5 μL.
(§3) The detection was operated in Multiple Reaction Monitoring (MRM) mode. The source parameters were as follows: curtain gas, collision gas, ion spray voltage, temperature, ion source gas 1, and ion source gas 2 were set at 20 psi, 5 psi, 5500 V, 450°C, 40 psi, and 40 psi, respectively. Nitrogen was the only gas used in the experiment.
(§4) A total of 24 male Sprague-Dawley rats (weight: 220–250 g) were obtained from animal center of Tianjin University of Traditional Chinese Medicine (Tianjin, China). Those rats were randomly divided into four groups (CGF, SGF, GCGF, and GIGF groups) and were housed in an environmentally controlled room (temperature 20–25°C, humidity 60 ± 5%). The rats were allowed free accessibility to food and water in the first week. They were fasted for 12 h before the experiment with water taken freely. The animal experiments were according to the Guidelines for the Care and Use of Laboratory Animals and were approved by the Animal Ethics Committee of Tianjin University of Traditional Chinese Medicine. The rats were randomly divided into four groups. Six rats in each group were separately given single dose of 0.75 mL/kg (0.9 g·kg herbal medicine) extract solution of four kinds of GFs vial oral administration. Blood samples (about 300 μL) were collected at 0, 0.08, 0.25, 0.5, 1, 2, 4, 6, 8, 10, 12, 14, and 24 h. The blood samples were collected in heparinized tubes and immediately centrifuged at 6000 rpm for 10 min at 4°C. The plasma samples were stored at −80°C until analysis.
(§5) The plasma sample (100 μL) was spiked with 20 μL IS working solution and 10 μL formic acid in an Eppendorf tube. Samples were vortex for 30 s, and then 1 mL acetonitrile was added to precipitate protein. Then samples were vortexed for 2 min and the tubes were centrifuged at 14000 rpm for 10 min. The upper organic phase was transferred into a new tube and evaporated to dryness under a flow of nitrogen gas. The residue was reconstituted with 50% methanol 100 μL. After centrifuging at 14000 rpm for 10 min, the supernatant was transferred into an autosampler vial and a volume of 5 μL was injected into the HPLC-ESI-MS/MS for analysis.
(§6) The pharmacokinetic parameters were calculated using a Drug and Statistics 1.0 (DAS 1.0) software (Medical College of Wannan, China). The pharmacokinetic parameters included time of maximum concentration (Tmax), maximum plasma concentration (Cmax), elimination half-life (T1/2), and area under concentrations curve (AUC0–t and AUC0–∞). All values were expressed as mean ± SD. A paired t test was used to test the difference among these groups.

[3] = in vivo, po
Excerpt: as §1, §2, §3, §4, §5, §6

[4] = single oral dose of CGF extract 0.75 mL/kg
[5] = single oral dose of GCGF extract 0.75 mL/kg
[6] = single oral dose of GIGF extract 0.75 mL/kg
[7] = single oral dose of SGF extract 0.75 mL/kg

SMILES	At −80°C for a month Remain ([1]; 10 ng/mL) [%]	Autosampler for 24 h Remain ([1]; 10 ng/mL) [%]	Freeze-thaw cycles Remain ([1]; 10 ng/mL) [%]	At −80°C for a month Remain ([1]; 30 ng/mL) [%]	Autosampler for 24 h Remain ([1]; 30 ng/mL) [%]	Freeze-thaw cycles Remain ([1]; 30 ng/mL) [%]	At −80°C for a month Remain ([1]; 300 ng/mL) [%]	Autosampler for 24 h Remain ([1]; 300 ng/mL) [%]	Freeze-thaw cycles Remain ([1]; 300 ng/mL) [%]	At −80°C for a month Remain ([1]; 3000 ng/mL) [%]	Autosampler for 24 h Remain ([1]; 3000 ng/mL) [%]	Freeze-thaw cycles Remain ([1]; 3000 ng/mL) [%]	Cmax [2, 4] [ng/mL]	Cmax [2, 5] [ng/mL]	Cmax [2, 7] [ng/mL]	half-life [2, 4] [h]	half-life [2, 7] [h]	Tmax [2, 4] [h]	Tmax [2, 5] [h]	Tmax [2, 7] [h]	other results
O=C(O)C1=CO[C@@H](O[C@@H]2O[C@H](CO)[C@@H](O)[C@H](O)[C@H]2O)[C@@H]2C(CO)=CC[C@H]12 [Geniposidic acid]	107	94.7	96.3	98.0	96.4	101	106	96.4	107	99.9	96.7	108	1020 ± 450	670 ± 432	398 ± 108	2.52 ± 0.64	2.93 ± 3.45	3.33 ± 1.63	3.33 ± 3.43	1.78 ± 0.44	AUC(0–t24) ratio relative to CGF ([2]; GCGF vs CGF (CGF = 1)): 0.39; AUC(0–t24) ratio relative to CGF ([2]; GIGF vs CGF (CGF = 1)): 0.15; AUC(0–t24) ratio relative to CGF ([2]; SGF vs CGF (CGF = 1)): 0.22; Cmax [2, 6]: 272 ± 164 ng/mL; half-life [2, 5]: 1.72 ± 0.69 h; half-life [2, 6]: 1.5 ± 0.42 h; Tmax [2, 6]: 2.4 ± 1.26 h
COC(=O)C1=CO[C@@H](O[C@@H]2O[C@H](CO)[C@@H](O)[C@H](O)[C@H]2O)[C@@H]2C(CO)=CC[C@H]12 [Geniposide]	99.2	102	97.5	98.4	95.1	92.8	94.8	96.3	93.1	92.8	91.6	95.0	1070 ± 598	581 ± 241	455 ± 160	3.21 ± 2.31	1.61 ± 0.63	1.54 ± 1.3	0.86 ± 0.13	0.89 ± 0.72	Cmax [2, 6]: 212 ± 109 ng/mL; half-life [2, 6]: 1.08 ± 0.45 h; Tmax [2, 6]: 1.3 ± 0.48 h; T 1/2 [2, 5]: 1.44 ± 0.53^∗ h
COC(=O)C1=CO[C@@H](O)[C@@H]2C(CO)=CC[C@H]12 [Genipin]	108	95.4		103	104	95.3	105	90.6	95.9	101	92.6	100	76.4 ± 40.9	68.5 ± 19.4	98 ± 41.8	3.42 ± 1.94	1.39 ± 0.88	1.11 ± 0.4	1.1 ± 0.52	1 ± 0.55	Detection in rat plasma ([2]; after administration of the GIGF extract, LLOQ 10 ng/mL): not detected; half-life [2, 5]: 1.39 ± 0.98 h
CC(/C=C/C=C(\C)C(=O)O)=C\C=C\C=C(C)\C=C\C=C(/C)C(=O)O [Crocetin]	98.4	97.9	102	101	99.9	95.3	105	96.3	98.6	103	98.9	106	165 ± 52.9	163 ± 76.4	153 ± 81.9	41.6 ± 57.6	56.2 ± 43	7.3 ± 3.93	6.43 ± 5.02	6.61 ± 4.05	Cmax [2, 6]: 91.2 ± 35.6 ng/mL; half-life [2, 5]: 12.8 ± 6.64 h; half-life [2, 6]: 31.8 ± 29.3 h; Tmax [2, 6]: 1.29 ± 2.31 h
COC(=O)C1=CO[C@@H](O[C@@H]2O[C@H](CO[C@@H]3O[C@H](CO)[C@@H](O)[C@H](O)[C@H]3O)[C@@H](O)[C@H](O)[C@H]2O)[C@@H]2C(CO)=CC[C@H]12 [Genipin-1-β-gentiobioside]	95.8	99.3	104	96.3	100	105	95.1	101	101	95.1	90.7	103									C max [2, 4]: 149.90 ± 132.07 ng/mL; T 1/2 [2, 4]: 0.72 ± 0.25 h; T max [2, 4]: 0.55 ± 0.33 h; C max [2, 5]: 102.92 ± 58.15 ng/mL; T 1/2 [2, 5]: 0.78 ± 0.32 h; T max [2, 5]: 0.78 ± 0.20 h; C max [2, 6]: 62.94 ± 16.81 ng/mL; T 1/2 [2, 6]: 0.91 ± 0.36 h; T max [2, 6]: 1.05 ± 0.37^∗# h; C max [2, 7]: 79.08 ± 39.47 ng/mL; T 1/2 [2, 7]: 0.61 ± 0.18 h; T max [2, 7]: 0.61 ± 0.31 h
CC(/C=C/C=C(\C)C(=O)O[C@@H]1O[C@H](CO)[C@@H](O)[C@H](O)[C@H]1O)=C\C=C\C=C(C)\C=C\C=C(/C)C(=O)O[C@@H]1O[C@H](CO[C@@H]2O[C@H](CO)[C@@H](O)[C@H](O)[C@H]2O)[C@@H](O)[C@H](O)[C@H]1O [crocin II]																					Detection in rat plasma ([2]; plasma samples after oral administration of GF extracts): not detected
CC(/C=C/C=C(\C)C(=O)O[C@@H]1O[C@H](CO[C@@H]2O[C@H](CO)[C@@H](O)[C@H](O)[C@H]2O)[C@@H](O)[C@H](O)[C@H]1O)=C\C=C\C=C(C)\C=C\C=C(/C)C(=O)O[C@@H]1O[C@H](CO[C@@H]2O[C@H](CO)[C@@H](O)[C@H](O)[C@H]2O)[C@@H](O)[C@H](O)[C@H]1O [crocin I]																					Detection in rat plasma [3]: not detected
